Key:
men with LUTS and BPH [1] = assay: MTOPS trial of finasteride and doxazosin, alone or together, in men with BPH; Cox/competing risks models; format: in vivo, human; details: for Hazard Ratio: multivariable Cox model; for risk of AUR and/or SI in treated patients / risk of symptom progression in treated patients: within 4 years, result in words
Text: Medical Therapy of Prostatic Symptoms (MTOPS) is a clinical research study sponsored by the National Institutes of Health (NIH). The study tested whether the oral drugs finasteride (Proscar®) and doxazosin (Cardura®), alone or together, can further delay or prevent further prostate growth in men with BPH.
MTOPS is the largest and longest study to test whether the drugs can stop noncancerous prostate growth. Seventeen U.S. medical centers recruited […] men diagnosed with symptomatic BPH between December 1995 and March 1998. The study doctors continued to follow these men through November 2001 on a quarterly basis. In addition to the clinical progression of BPH, MTOPS included evaluations of prostate volume by ultrasound, prostate histopathobiology, quality of life and urodynamics. (Funding by NIDDK (UO1-DK-46472), 1992-2002; IND 43,564; http://www.bsc.gwu.edu/mtops/; McConnell et al., 2003).)
Herein described is the development of a nomogram similar to that shown in Examples 1 and 3 using data from the MTOPS study. In this double-blind, randomized, placebo-controlled trial, 3047 men with moderate-to-severe urinary symptoms and enlarged prostate glands were randomized to receive either 1) doxazosin+placebo; 2) finasteride+placebo; 3) doxazosin+finasteride; or 4) placebo+placebo for a minimum of four and a maximum of six years, with an average follow-up of five years. Complete data on outcomes were available for 3047 men and frozen sera was archived at baseline.
(§1) Intent-to-treat, competing risks methodology was employed to model the 3,047 men with LUTS and BPH randomized to the MTOPS trial, a 5 year, randomized, placebo-controlled study evaluating the efficacy and safety of BPH medical therapy. These men were characterized at baseline by a number of parameters, including patient age and race, AUA symptom index (AUA-SI), BPH Impact Index (BII), total prostate and TZ volume measured by ultrasound, total prostate specific antigen (PSA) level, maximum flow rate (Qmax) and post-void residual (PVR) urine volume. Cox proportional hazards regression was used to relate these baseline variables to their future probability of AUR/SI within 4 years. The nomogram was internally validated with bootstrapping to assess its discrimination and calibration. Discrimination was quantified as the concordance index (CI).
as §1, with “used” for “employed”, “(Qmax),” for “(Qmax)”, “reaching a symptom progression endpoint” for “AUR/SI”
Table 13 provides P values for a series of predictors, including BPSA levels, in a multivariate competing risks model for AUR and/or SI. BPSA is a novel serum marker for BPH, and independently predicts the risk of AUR and/or surgery in men with BPH. Thus, nomogram tools that incorporate BPSA levels may improve the ability to manage patients with BPH.

men with LUTS and BPH [2] = tested on: men with LUTS and BPH; design: Creatinine Rise, endpoint events: unit not given here; details: entire MTOPS cohort, number of events per treatment group; cited from earlier work
male subjects with BPH [3] = assay: Phase III placebo-controlled studies of dutasteride in men with BPH (ARIA 3001, 3002, 3003); Cox regression nomogram for AUR/SI within 2 years; format: in vivo, human
Text: The use of single parameters to predict the risk of BPH progression or to determine the relative reduction potentially gained with 5ARI therapy is not optimal. Nomograms are prediction tools optimized for accuracy that utilize multiple parameters to predict specific outcomes. The objective of this study was to develop a prediction model, or nomogram, that would predict the probability that a person with BPH would experience AUR or require surgical intervention (SI) within two years, using data from the recently completed Phase III studies of dutasteride versus placebo in men with BPH (Roehrborn et al. 2002).
Data from three two-year multicenter, placebo-controlled, double-blind studies evaluating dutasteride 0.5 mg/day (n=2,167) or placebo (n=2,158) in male subjects with BPH were utilized to develop a nomogram. […] Most of the 4,325 subjects randomly assigned to receive either dutasteride or placebo completed 2 years of treatment (70% and 67%, respectively).
Subjects were characterized at baseline by a number of parameters, including AUA symptom index (AUA-SI) score, BPH impact index (BII) score, prostate volume, prostate specific antigen (PSA) level, maximum urinary flow rate (Qmax), and prior use of selective α1 blockers. Cox proportional hazards regression was used to relate these baseline variables to the future probability of developing AUR or requiring surgical intervention within 2 years. The nomogram was internally validated with bootstrapping, a re-sampling technique, to assess its discrimination and calibration. Discrimination was quantified as the concordance index, which is rated from 0.5 to 1.00. Calibration was assessed visually, by plotting observed proportions against predicted probabilities, again using bootstrapping to reduce over-fit bias.
With these benefits in mind, a nomogram was constructed to predict the risk of BPH progression using data from a phase III pivotal trial (ARIA 3001, 3002, 3003) used to establish the safety and efficacy of dutasteride prior to FDA approval. For each individual predictive parameter, points are awarded by drawing a perpendicular line to the point scale along the top of the nomogram. After all points are added, a perpendicular line is drawn from the bottom, total points scale to the line below, indicating the 2 year probability of a patient's developing retention or requiring BPH-related surgery within two years. Note that the use of dutasteride (versus placebo) leads to a total point score reduced by approximately 20 to 25 points, which translates to a 50% relative risk reduction across the entire range of total points for any patient. […] Thus, a 50% relative risk reduction over two years translates into about 13 to 14% absolute risk reduction over this very short time frame, with a much greater benefit likely experienced over time.

male subjects with BPH [4] = details: cited from earlier work
[5] = tested on: men with moderate-to-severe urinary symptoms and enlarged prostate glands; details: PLESS, 5 mg finasteride, four years; cited from earlier work
[6] = AUR/SI within 4 years, intent-to-treat, competing risks
[7] = symptom progression (4-point rise in AUA-SI) within 4 years
[8] = dutasteride 0.5 mg/day vs placebo, over 24 months

Row | SMILES | Hazard Ratio (men with LUTS and BPH [1]; [6]) | Hazard Ratio (men with LUTS and BPH [1]; [7]) | risk of AUR and/or SI in treated patients (men with LUTS and BPH [1]) | risk of symptom progression in treated patients (men with LUTS and BPH [1]) | AUA Rise, endpoint events (men with LUTS and BPH [2]) | BPH Invasive Therapy, events (men with LUTS and BPH [2]) | Creatinine Rise, endpoint events (men with LUTS and BPH [2]) | Incontinence, endpoint events (men with LUTS and BPH [2]) | Retention, endpoint events (men with LUTS and BPH [2]) | Total endpoint events (men with LUTS and BPH [2]) | UTI/urosepsis, endpoint events (men with LUTS and BPH [2]) | further results
1 | COc1cc2nc(N3CCN(C(=O)C4COc5ccccc5O4)CC3)nc(N)c2cc1OC (stereo not shown) [doxazosin] | 0.7154 | 0.5278 | not | significantly reduced risk of symptom progression | 59 | 41 | 0 | 11 | 13 | 85 | 2 | 
2 | C[C@]12C=CC(=O)N[C@@H]1CC[C@@H]1[C@@H]2CC[C@]2(C)[C@@H](C(=O)Nc3cc(C(F)(F)F)ccc3C(F)(F)F)CC[C@@H]12 [dutasteride] |  |  |  |  |  |  |  |  |  |  |  | relative risk reduction across the entire range of total points (male subjects with BPH [3]; 2-year AUR/SI nomogram): 50%; Hazard Ratio (95% CIs) (male subjects with BPH [3]; full multivariate Cox model, AUR or surgical intervention within 2 years, dutasteride vs placebo group): 0.50 (0.37, 0.66); absolute risk reduction (male subjects with BPH [3]; over two years, most severely affected patients (27% maximum risk)): 13 to 14%; reduction of nomogram total point score (male subjects with BPH [3]; use of dutasteride versus placebo, 2-year AUR/SI nomogram): 20 to 25 points; relative risk reduction of AUR and/or surgical intervention (male subjects with BPH [3]; vs placebo, at endpoint): 50%; patients who had experienced AUR and/or surgical intervention at endpoint (male subjects with BPH [4]; at endpoint, 2-year studies): 3.5%; reduction in the need for BPH-related surgery (male subjects with BPH [4]; [8]): 48%; reduction in the risk of AUR (male subjects with BPH [4]; [8]): 57%
3 | CC(C)(C)NC(=O)[C@H]1CC[C@H]2[C@@H]3CC[C@H]4NC(=O)C=C[C@]4(C)[C@H]3CC[C@]12C [finasteride] | 0.3506 | 0.6961 | reduced risk of AUR and/or SI | significantly reduced risk of symptom progression | 74 | 15 | 0 | 9 | 6 | 89 | 0 | incidence of BPH-related surgery [5]: 5%; incidence of precipitated AUR [5]: 2%; incidence of spontaneous AUR [5]: 1%; overall incidence of AUR [5]: 4%

From US20070134725A1, “METHOD TO PREDICT RISK OF BPH PROGRESSION” (Baylor College of Medicine, priority 2004, published 2007)
